From article PMC9699003, “Arene Variation of Highly Cytotoxic Tridentate Naphthoquinone-Based Ruthenium(II) Complexes and In-Depth In Vitro Studies” (Pharmaceutics, 2022)

Columns and labels:
Assay type in all cases: cell-based, human
[1] = test system: A549 non-small cell lung cancer cells; assay: MTT assay (cytotoxicity)
Method: (§1) CH1/PA-1 ovarian teratocarcinoma cells (provided by L. R. Kelland, CRC Centre for Cancer Therapeutics, Institute of Cancer Research, Sutton, UK; confirmed by STR profiling as PA-1 ovarian teratocarcinoma cells at Multiplexion, Heidelberg, Germany), SW480 colon carcinoma and A549 non-small cell lung cancer cells (both obtained from the American Type Culture Collection, Manassas, VA, USA) were grown as adherent cultures in 75 cm² culture flasks (CytoOne, Starlab, Hamburg, Germany) by using minimal essential medium (MEM) supplemented with 1 mM sodium pyruvate, 4 mM L-glutamine, 1% (v/v) nonessential amino acids from 100-fold stock (all purchased from Sigma-Aldrich) and 10% heat-inactivated fetal bovine serum (BioWest, Nuaillé, France). Cells were maintained under standard culture conditions with 5% CO2 at 37 °C in a humidified atmosphere.
(§2) The 3-(4,5-dimethylthiazol-2-yl)-2,5-diphenyl-2H-tetrazolium bromide (MTT, Acros Organics, Geel, Belgium) assay was used to detect the cytotoxicity of the compounds after 24 h and 96 h incubation. In brief, cells were harvested from culture flasks and the following cell numbers (each in 100 µL) were seeded into 96-well culture plates (CytoOne, tissue culture treated, Starlab, Hamburg, Germany) for 24 h incubation: 1 × 10^4 (CH1/PA-1), 1 × 10^4 (SW480) and 1.5 × 10^4 (A549) cells per well; and for 96 h incubation: 1 × 10^3 (CH1/PA-1), 2 × 10^3 (SW480) and 3 × 10^3 (A549) cells per well. After 24 h, cells resuming their exponential growth rate were treated with test compounds at nine concentrations obtained by serial two-fold dilution. Stock solutions were prepared in DMSO (20 mM or 40 mM) and diluted in supplemented MEM. An amount of 100 µL of each concentration was added to the plates in triplicates and cells were exposed for 24 or 96 h. Afterward, the medium was replaced with 100 µL of MTT solution (5 mg/mL) in phosphate-buffered saline (PBS, Sigma-Aldrich), diluted 1:7 in RPMI 1640 medium (supplemented with 4 mM L-glutamine and 10% heat-inactivated FBS). Upon cell-viability-dependent conversion of the yellow, water-soluble tetrazolium salt into purple formazan products for 4 h, the crystals were dissolved in 150 µL DMSO. The absorbance of the resulting solutions, which is directly proportional to the number of viable cells, was measured at 550 nm (and at 690 nm as a reference) with a microplate reader (ELx808, BioTek, Winoosky, VT, USA) and Gen5TM 3.08 software (BioTek). Blank-corrected optical densities were subjected to graphical evaluation and interpolation of IC50 values. At least three biologically and technically independent experiments were performed.

[2] = test system: CH1/PA-1 ovarian teratocarcinoma cells; assay: MTT assay (cytotoxicity); settings: CH1/PA-1, MTT
Method: as §1, §2

[3] = test system: SW480 colon carcinoma cells; assay: MTT assay (cytotoxicity)
Method: as §1, §2

CH1/PA-1 cells = assay: Cell cycle distribution (PI staining, flow cytometry); settings: CH1/PA-1, 24 h
Method: (§3) For the flow-cytometric determination of cell cycle distribution, CH1/PA-1 (8 × 10^4 cells/well) and SW480 (1.2 × 10^5 cells/well) cells were seeded into 12-well plates (CytoOne, tissue culture treated) in 1 mL supplemented MEM. In the first 24 h, the cells were allowed to settle and resume exponential growth. […] Gemcitabine (Sigma-Aldrich, 0.01 and 0.05 µM) and etoposide (Sigma-Aldrich, 0.25, 0.5 and 1 µM) were used as positive controls. After removal of the treatment medium, cells were washed with 1 mL PBS and trypsinized. Cells were collected in Eppendorf tubes and centrifuged (300 g, 3 min), and the supernatant was discarded. In the following step, cells were washed with 1 mL PBS and resuspended in 500 µL PI/HFS buffer (0.1% v/v Triton X-100, 0.1% w/v sodium citrate, in PBS) containing 25 µg/mL propidium iodide (PI, 1.0 mg/mL, Sigma-Aldrich). The staining was carried out overnight at 4 °C in the dark, and 200 µL of the cell suspension was loaded into 96-well round bottom plates (Falcon). Samples were measured with a Millipore Guava easyCyte 8HT flow cytometer with GuavaSoft™ software in the InCyte-modus, and 10,000 events/sample were detected. Data were analyzed with FlowJo software v 10.8.1 (Tree Star, Ashland, OR, USA) using Watson algorithm. Percentages of cells in the three cell cycle phases (G1/G0, S and G2/M) were calculated by integrating the resulting histograms of fluorescence signals (Figures S29 and S30). Experiments were repeated at least three times. For statistical evaluation, an unpaired t-test with Welch’s correction was performed by using GraphPad PRISM software.

SW480 cells = assay: as above; settings: SW480, 24 h
Method: as §3

CC1=C([O-])C([O-])(n2cccn2)c2ccccc2C1=O.[Ru+2].c1ccc2c(c1)CCC2 (racemic) [Compound 4]
IC50 ([1]; 24 h exposure): 119 ± 21 µM | IC50 ([1]; 96 h exposure): 9.1 ± 1.5 µM | IC50 ([2]; 24 h exposure): 146 ± 18 µM | IC50 ([2]; 96 h exposure): 88 ± 10 µM | IC50 ([3]; 24 h exposure): 3.5 ± 1.6 µM | IC50 ([3]; 96 h exposure): 0.52 ± 0.09 µM | Cells in G1/G0 phase (CH1/PA-1 cells; 50 µM): 25.1 ± 4.7% | Cells in G2/M phase (CH1/PA-1 cells; 50 µM): 39.8 ± 2.9% | Cells in S phase (CH1/PA-1 cells; 50 µM): 38.4 ± 1.7% | Cells in G1/G0 phase (CH1/PA-1 cells; 100 µM): 23.9 ± 4.7% | Cells in G2/M phase (CH1/PA-1 cells; 100 µM): 42.2 ± 4.7% | Cells in S phase (CH1/PA-1 cells; 100 µM): 38.3 ± 2.3% | Cells in G1/G0 phase (CH1/PA-1 cells; 200 µM): 24.5 ± 3.8% | Cells in G2/M phase (CH1/PA-1 cells; 200 µM): 40.0 ± 3.8% | Cells in S phase (CH1/PA-1 cells; 200 µM): 39.1 ± 3.9% | Cells in G1/G0 phase (SW480 cells; 0.31 µM): 24.7 ± 9.2% | Cells in G2/M phase (SW480 cells; 0.31 µM): 36.1 ± 3.0% | Cells in S phase (SW480 cells; 0.31 µM): 42.1 ± 7.1% | Cells in G1/G0 phase (SW480 cells; 0.63 µM): 19.0 ± 4.6% | Cells in G2/M phase (SW480 cells; 0.63 µM): 45.8 ± 4.2% | Cells in S phase (SW480 cells; 0.63 µM): 42.0 ± 3.5% | Cells in G1/G0 phase (SW480 cells; 1.25 µM): 20.7 ± 5.3% | Cells in G2/M phase (SW480 cells; 1.25 µM): 25.0 ± 5.8% | Cells in S phase (SW480 cells; 1.25 µM): 57.1 ± 4.5%

CC1=C(O)C(=O)c2ccccc2C1=O [L, 2-Hydroxy-3-methyl-1,4-naphthoquinone]
IC50 ([1]; Homo sapiens, 24 h exposure): > 400 µM | IC50 ([2]; Homo sapiens, 24 h exposure): > 400 µM | IC50 ([3]; Homo sapiens, 24 h exposure): > 400 µM | Cells in G1/G0 phase (CH1/PA-1 cells; 100 µM): 37.0 ± 0.3% | Cells in G2/M phase (CH1/PA-1 cells; 100 µM): 22.9 ± 2.8% | Cells in S phase (CH1/PA-1 cells; 100 µM): 41.4 ± 2.4% | Cells in G1/G0 phase (CH1/PA-1 cells; 150 µM): 40.8 ±1.7% | Cells in G2/M phase (CH1/PA-1 cells; 150 µM): 19.3 ± 1.9% | Cells in S phase (CH1/PA-1 cells; 150 µM): 42.1 ± 2.7% | Cells in G1/G0 phase (CH1/PA-1 cells; 200 µM): 47.2 ± 1.7% | Cells in G2/M phase (CH1/PA-1 cells; 200 µM): 16.8 ± 8.9% | Cells in S phase (CH1/PA-1 cells; 200 µM): 37.6 ± 3.5% | Cells in G1/G0 phase (SW480 cells; 50 µM): 47.4 ± 2.0% | Cells in G2/M phase (SW480 cells; 50 µM): 14.5 ± 0.5% | Cells in S phase (SW480 cells; 50 µM): 38.8 ± 1.7% | Cells in G1/G0 phase (SW480 cells; 100 µM): 51.5 ± 5.0% | Cells in G2/M phase (SW480 cells; 100 µM): 12.1 ± 0.4% | Cells in S phase (SW480 cells; 100 µM): 35.9 ± 3.4% | Cells in G1/G0 phase (SW480 cells; 150 µM): 52.0 ± 2.9% | Cells in G2/M phase (SW480 cells; 150 µM): 11.3 ± 0.5% | Cells in S phase (SW480 cells; 150 µM): 36.3 ± 2.2% | Cell cycle perturbation (in words) (SW480 cells; tested concentrations): did not show any cell cycle perturbation

CC1=C([O-])C([O-])(n2cccn2)c2ccccc2C1=O.[Ru+2].c1ccc(-c2ccccc2)cc1 (racemic) [Compound 5]
IC50 ([1]; 24 h exposure): 4.3 ± 1.6 µM | IC50 ([1]; 96 h exposure): 1.2 ± 0.2 µM | IC50 ([2]; 24 h exposure): 42 ± 4 µM | IC50 ([2]; 96 h exposure): 30 ± 3 µM | IC50 ([3]; 24 h exposure): 0.77 ± 0.24 µM | IC50 ([3]; 96 h exposure): 0.072 ± 0.019 µM | Cells in G1/G0 phase (CH1/PA-1 cells; 12.5 µM): 20.1 ± 5.0% | Cells in G2/M phase (CH1/PA-1 cells; 12.5 µM): 39.1 ± 5.4% | Cells in S phase (CH1/PA-1 cells; 12.5 µM): 43.1 ± 6.3% | Cells in G1/G0 phase (CH1/PA-1 cells; 25 µM): 19.2 ± 4.8% | Cells in G2/M phase (CH1/PA-1 cells; 25 µM): 46.7 ± 1.9% | Cells in S phase (CH1/PA-1 cells; 25 µM): 38.0 ± 4.0% | Cells in G1/G0 phase (CH1/PA-1 cells; 50 µM): 17.5 ± 1.8% | Cells in G2/M phase (CH1/PA-1 cells; 50 µM): 46.8 ± 1.8% | Cells in S phase (CH1/PA-1 cells; 50 µM): 39.3 ± 1.4% | Cells in G1/G0 phase (SW480 cells; 0.039 µM): 32.3 ± 12.9% | Cells in G2/M phase (SW480 cells; 0.039 µM): 30.5 ± 6.2% | Cells in S phase (SW480 cells; 0.039 µM): 38.8 ± 7.2% | Cells in G1/G0 phase (SW480 cells; 0.078 µM): 19.5 ± 4.3% | Cells in G2/M phase (SW480 cells; 0.078 µM): 35.9 ± 3.5% | Cells in S phase (SW480 cells; 0.078 µM): 46.9 ± 7.7% | Cells in G1/G0 phase (SW480 cells; 0.16 µM): 15.5 ± 1.3% | Cells in G2/M phase (SW480 cells; 0.16 µM): 27.4 ± 1.3% | Cells in S phase (SW480 cells; 0.16 µM): 57.1 ± 0.1%
